In PubChem BioAssay (NCI):
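Abbreviation: GI50, concentration required for 50% inhibition of growth. TGI is the concentration that stops growth completely.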

Columns and labels:
Experiment in all cases: NCI anticancer screen, dose series, 384-well format
HT29 colon = system: HT29 colon
MDA-MB-231 breast = system: MDA-MB-231 breast
NCI-H23 lung = system: NCI-H23 lung
IGROV1 ovarian = system: IGROV1 ovarian
KM12 colon = system: KM12 colon
CCRF-CEM leukemia = system: CCRF-CEM leukemia
A498 renal = system: A498 renal
DU-145 prostate = system: DU-145 prostate
SF-268 CNS = system: SF-268 CNS
RPMI-8226 leukemia = system: RPMI-8226 leukemia
RXF 393 renal = system: RXF 393 renal
MOLT-4 leukemia = system: MOLT-4 leukemia
NCI-H226 lung = system: NCI-H226 lung
EKVX NSCLC = system: EKVX NSCLC
MDA-MB-468 breast = system: MDA-MB-468 breast
SK-MEL-2 melanoma = system: SK-MEL-2 melanoma
SNB-75 CNS = system: SNB-75 CNS
NCI/ADR-RES ovarian = system: NCI/ADR-RES ovarian
PC-3 prostate = system: PC-3 prostate
NCI-H322M lung = system: NCI-H322M lung
SNB-19 CNS = system: SNB-19 CNS
UACC-62 melanoma = system: UACC-62 melanoma
ACHN renal = system: ACHN renal
BT-549 breast = system: BT-549 breast
UACC-257 melanoma = system: UACC-257 melanoma
SK-OV-3 ovarian = system: SK-OV-3 ovarian
MALME-3M melanoma = system: MALME-3M melanoma
NCI-H522 lung = system: NCI-H522 lung
SW-620 colon = system: SW-620 colon
SN12C renal = system: SN12C renal
SF-295 CNS = system: SF-295 CNS
MCF7 breast = system: MCF7 breast
HCT-15 colon = system: HCT-15 colon
MDA-MB-435 melanoma = system: MDA-MB-435 melanoma
OVCAR-4 ovarian = system: OVCAR-4 ovarian
TK-10 renal = system: TK-10 renal
786-0 renal = system: 786-0 renal
HS 578T breast = system: HS 578T breast
OVCAR-3 ovarian = system: OVCAR-3 ovarian
LOX IMVI melanoma = system: LOX IMVI melanoma
K-562 leukemia = system: K-562 leukemia
A549 NSCLC = system: A549 NSCLC
T-47D breast = system: T-47D breast
CAKI-1 renal = system: CAKI-1 renal
HCT-116 colon = system: HCT-116 colon
UO-31 renal = system: UO-31 renal
SK-MEL-28 melanoma = system: SK-MEL-28 melanoma
U251 glioblastoma = system: U251 glioblastoma
HOP-92 NSCLC = system: HOP-92 NSCLC
M14 melanoma = system: M14 melanoma
HL-60(TB) leukemia = system: HL-60(TB) leukemia
SF-539 CNS = system: SF-539 CNS
OVCAR-8 ovarian = system: OVCAR-8 ovarian
HOP-62 NSCLC = system: HOP-62 NSCLC
OVCAR-5 ovarian = system: OVCAR-5 ovarian
SK-MEL-5 melanoma = system: SK-MEL-5 melanoma
NCI-H460 NSCLC = system: NCI-H460 NSCLC
SR leukemia = system: SR leukemia
COLO 205 colon = system: COLO 205 colon

## O=C1CCC(N2C(=O)c3ccccc3C2=O)C(=O)N1 (stereo unspecified)
HT29 colon
  GI50: > 100 µM
  TGI: > 100 µM
MDA-MB-231 breast
  GI50: > 100 µM
  TGI: > 100 µM
NCI-H23 lung
  GI50: > 100 µM
  TGI: > 100 µM
IGROV1 ovarian
  GI50: > 100 µM
  TGI: > 100 µM
KM12 colon
  GI50: > 100 µM
  TGI: > 100 µM
CCRF-CEM leukemia
  GI50: > 100 µM
  TGI: > 100 µM
A498 renal
  GI50: > 100 µM
  TGI: > 100 µM
DU-145 prostate
  GI50: > 100 µM
  TGI: > 100 µM
SF-268 CNS
  GI50: > 100 µM
  TGI: > 100 µM
RPMI-8226 leukemia
  GI50: > 100 µM
  TGI: > 100 µM
RXF 393 renal
  GI50: > 100 µM
  TGI: > 100 µM
MOLT-4 leukemia
  GI50: > 100 µM
  TGI: > 100 µM
NCI-H226 lung
  GI50: > 100 µM
  TGI: > 100 µM
EKVX NSCLC
  GI50: > 100 µM
  TGI: > 100 µM
MDA-MB-468 breast
  GI50: > 100 µM
  TGI: > 100 µM
SK-MEL-2 melanoma
  GI50: > 100 µM
  TGI: > 100 µM
SNB-75 CNS
  GI50: > 100 µM
  TGI: > 100 µM
NCI/ADR-RES ovarian
  GI50: > 100 µM
  TGI: > 100 µM
PC-3 prostate
  GI50: > 100 µM
  TGI: > 100 µM
NCI-H322M lung
  GI50: > 100 µM
  TGI: > 100 µM
SNB-19 CNS
  GI50: > 100 µM
  TGI: > 100 µM
UACC-62 melanoma
  GI50: > 100 µM
  TGI: > 100 µM
ACHN renal
  GI50: > 100 µM
  TGI: > 100 µM
BT-549 breast
  GI50: > 100 µM
  TGI: > 100 µM
UACC-257 melanoma
  GI50: > 100 µM
  TGI: > 100 µM
SK-OV-3 ovarian
  GI50: > 100 µM
  TGI: > 100 µM
MALME-3M melanoma
  GI50: > 100 µM
  TGI: > 100 µM
NCI-H522 lung
  GI50: > 100 µM
  TGI: > 100 µM
SW-620 colon
  GI50: > 100 µM
  TGI: > 100 µM
SN12C renal
  GI50: > 100 µM
  TGI: > 100 µM
SF-295 CNS
  GI50: > 100 µM
  TGI: > 100 µM
MCF7 breast
  GI50: > 100 µM
  TGI: > 100 µM
HCT-15 colon
  GI50: > 100 µM
  TGI: > 100 µM
MDA-MB-435 melanoma
  GI50: > 100 µM
  TGI: > 100 µM
OVCAR-4 ovarian
  GI50: > 100 µM
  TGI: > 100 µM
TK-10 renal
  GI50: > 100 µM
  TGI: > 100 µM
786-0 renal
  GI50: > 100 µM
  TGI: > 100 µM
HS 578T breast
  GI50: > 100 µM
  TGI: > 100 µM
OVCAR-3 ovarian
  GI50: > 100 µM
  TGI: > 100 µM
LOX IMVI melanoma
  GI50: > 100 µM
  TGI: > 100 µM
K-562 leukemia
  GI50: > 100 µM
  TGI: > 100 µM
A549 NSCLC
  GI50: > 100 µM
  TGI: > 100 µM
T-47D breast
  GI50: > 100 µM
  TGI: > 100 µM
CAKI-1 renal
  GI50: > 100 µM
  TGI: > 100 µM
HCT-116 colon
  GI50: > 100 µM
  TGI: > 100 µM
UO-31 renal
  GI50: > 100 µM
  TGI: > 100 µM
SK-MEL-28 melanoma
  GI50: > 100 µM
  TGI: > 100 µM
U251 glioblastoma
  GI50: > 100 µM
  TGI: > 100 µM
HOP-92 NSCLC
  GI50: > 100 µM
  TGI: > 100 µM
M14 melanoma
  GI50: > 100 µM
  TGI: > 100 µM
HL-60(TB) leukemia
  GI50: > 100 µM
  TGI: > 100 µM
SF-539 CNS
  GI50: > 100 µM
  TGI: > 100 µM
OVCAR-8 ovarian
  GI50: > 100 µM
  TGI: > 100 µM
HOP-62 NSCLC
  GI50: > 100 µM
  TGI: > 100 µM
OVCAR-5 ovarian
  GI50: > 100 µM
  TGI: > 100 µM

## Cn1cc(-c2ccc3nnc(Sc4ccc5ncccc5c4)n3n2)cn1
HT29 colon
  GI50: > 100 µM
  TGI: > 100 µM
MDA-MB-231 breast
  GI50: > 100 µM
  TGI: > 100 µM
NCI-H23 lung
  GI50: > 100 µM
  TGI: > 100 µM
IGROV1 ovarian
  GI50: > 100 µM
  TGI: > 100 µM
KM12 colon
  GI50: > 100 µM
  TGI: > 100 µM
CCRF-CEM leukemia
  GI50: > 100 µM
  TGI: > 100 µM
A498 renal
  GI50: > 100 µM
  TGI: > 100 µM
DU-145 prostate
  GI50: > 100 µM
  TGI: > 100 µM
SF-268 CNS
  GI50: > 100 µM
  TGI: > 100 µM
RPMI-8226 leukemia
  GI50: > 100 µM
  TGI: > 100 µM
RXF 393 renal
  GI50: 38.2 µM
  TGI: > 100 µM
MOLT-4 leukemia
  GI50: > 100 µM
  TGI: > 100 µM
SK-MEL-5 melanoma
  GI50: > 100 µM
  TGI: > 100 µM
NCI-H226 lung
  GI50: > 100 µM
  TGI: > 100 µM
EKVX NSCLC
  GI50: > 100 µM
  TGI: > 100 µM
NCI-H460 NSCLC
  GI50: > 100 µM
  TGI: > 100 µM
MDA-MB-468 breast
  GI50: 13.8 µM
  TGI: 48.4 µM
SK-MEL-2 melanoma
  GI50: > 100 µM
  TGI: > 100 µM
SNB-75 CNS
  GI50: > 100 µM
  TGI: > 100 µM
NCI/ADR-RES ovarian
  GI50: > 100 µM
  TGI: > 100 µM
PC-3 prostate
  GI50: > 100 µM
  TGI: > 100 µM
NCI-H322M lung
  GI50: > 100 µM
  TGI: > 100 µM
SNB-19 CNS
  GI50: > 100 µM
  TGI: > 100 µM
UACC-62 melanoma
  GI50: > 100 µM
  TGI: > 100 µM
ACHN renal
  GI50: > 100 µM
  TGI: > 100 µM
BT-549 breast
  GI50: > 100 µM
  TGI: > 100 µM
UACC-257 melanoma
  GI50: > 100 µM
  TGI: > 100 µM
SK-OV-3 ovarian
  GI50: > 100 µM
  TGI: > 100 µM
SR leukemia
  GI50: 27.2 µM
  TGI: > 100 µM
MALME-3M melanoma
  GI50: > 100 µM
  TGI: > 100 µM
NCI-H522 lung
  GI50: > 100 µM
  TGI: > 100 µM
SW-620 colon
  GI50: > 100 µM
  TGI: > 100 µM
SN12C renal
  GI50: > 100 µM
  TGI: > 100 µM
SF-295 CNS
  GI50: 46.3 µM
  TGI: > 100 µM
MCF7 breast
  GI50: > 100 µM
  TGI: > 100 µM
HCT-15 colon
  GI50: > 100 µM
  TGI: > 100 µM
MDA-MB-435 melanoma
  GI50: > 100 µM
  TGI: > 100 µM
OVCAR-4 ovarian
  GI50: > 100 µM
  TGI: > 100 µM
TK-10 renal
  GI50: > 100 µM
  TGI: > 100 µM
786-0 renal
  GI50: > 100 µM
  TGI: > 100 µM
HS 578T breast
  GI50: 61.6 µM
  TGI: > 100 µM
OVCAR-3 ovarian
  GI50: > 100 µM
  TGI: > 100 µM
LOX IMVI melanoma
  GI50: > 100 µM
  TGI: > 100 µM
K-562 leukemia
  GI50: > 100 µM
  TGI: > 100 µM
A549 NSCLC
  GI50: > 100 µM
  TGI: > 100 µM
T-47D breast
  GI50: > 100 µM
  TGI: > 100 µM
CAKI-1 renal
  GI50: > 100 µM
  TGI: > 100 µM
HCT-116 colon
  GI50: > 100 µM
  TGI: > 100 µM
UO-31 renal
  GI50: > 100 µM
  TGI: > 100 µM
SK-MEL-28 melanoma
  GI50: > 100 µM
  TGI: > 100 µM
U251 glioblastoma
  GI50: > 100 µM
  TGI: > 100 µM
HOP-92 NSCLC
  GI50: > 100 µM
  TGI: > 100 µM
M14 melanoma
  GI50: > 100 µM
  TGI: > 100 µM
HL-60(TB) leukemia
  GI50: > 100 µM
  TGI: > 100 µM
SF-539 CNS
  GI50: > 100 µM
  TGI: > 100 µM
COLO 205 colon
  GI50: > 100 µM
  TGI: > 100 µM
HOP-62 NSCLC
  GI50: > 100 µM
  TGI: > 100 µM
OVCAR-5 ovarian
  GI50: > 100 µM
  TGI: > 100 µM
